Like-named read-outs stand apart in the source and are kept apart here.
Key:
[1] = test system: U937 leukemia cell line; assay: Cell viability assay (alamarBlue / MTT), U937; type: cell-based; conditions: Homo sapiens, U-937, 72 h, U937, approximately 72 h
Method: (§1) MCF7, HL60, MV4-11, K562, Kasumi-1, U937, THP1, and Jurkat cell lines were purchased from American Type Culture Collection (Manassas, VA, USA). Fetal bovine serum was purchased from Life Technologies. MCF7 cells were cultured in DMEM medium supplemented with 10% fetal bovine serum at 37 °C in an incubator with 5% CO2 atmosphere. HL60 and MV4-11 cells were cultured in 1640 medium supplemented with 10% fetal bovine serum. K562, Kasumi-1 and HL60 were cultured in 96 plate at 10,000/well for 2 h. DC-S285 was dissolved in DMSO (Sigma) and then stored at 4 °C. The cells were incubated with DC-S285 at different concentrations ranging from 0 to 100 µM for approximately 72 h. The activities of […] against MCF7, HL60, MV4-11, K562, Kasumi-1, U937, THP1, and Jurkat were measured by the alamarBlue assays and MTT assays.

[2] = molecular target: T1, SET7 (Homo sapiens, UniProt Q8WTS6); assay: 3H-labeled radioisotope methylation assay; type: biochemical; conditions: 3H radioactive methylation assay
T1 sequence (Q8WTS6 1-366): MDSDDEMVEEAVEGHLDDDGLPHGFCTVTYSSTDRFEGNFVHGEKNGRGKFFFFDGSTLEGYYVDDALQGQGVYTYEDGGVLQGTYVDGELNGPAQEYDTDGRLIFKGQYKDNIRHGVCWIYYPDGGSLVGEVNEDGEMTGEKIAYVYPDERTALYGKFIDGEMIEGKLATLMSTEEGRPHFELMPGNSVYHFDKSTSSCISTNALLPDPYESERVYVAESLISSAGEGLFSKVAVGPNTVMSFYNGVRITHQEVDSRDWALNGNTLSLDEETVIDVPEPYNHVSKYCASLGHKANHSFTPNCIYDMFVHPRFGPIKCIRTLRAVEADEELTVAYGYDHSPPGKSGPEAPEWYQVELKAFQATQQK
Method: As for ^3Hradioactive methylation assay, SAH was used as the reference compound and the compounds were tested in 10 concentrations in duplicate in modified Tris buffer (1× assay buffer). The following materials were purchased: SET7 (Enzo, Cat. No. ALX-201-178, New York, NY, USA), [^3H]-SAM (PerkinElmer Inc., Lot. No. 1790854), SAH (Sigma, Cat. No. A9384-25MG, St. Louis, MO, USA) and 384-well Flashplate (Perkin Elmer, Cat. No. SMP410A001PK,). The compounds were transferred to the assay plate by Echo 550 with 3-fold dilution in 100% DMSO where the final DMSO concentration is 1%. Then the enzyme solution was transferred to the assay plate and 1× assay buffer was transferred for low control. After 15 min incubation at room temperature, peptide and [^3H]-SAM mix solution was transferred to each well to start the reaction. The cold SAM in 1× buffer was added to each well to stop the reaction after 60 min incubation at room temperature. 25 μL of the whole reaction system per well was transferred to Flashplate which was washed with dH2O and 0.1% Tween-20 for three times after 60 min incubation. The data was read on Microbeta. All the inhibition assays are performed in duplicate.

[3] = molecular target: T1, SET7; assay: AlphaLISA SET7 inhibition assay; type: biochemical; conditions: for IC50: SET7; for inhibition at 100 µM: read-out: Inhibition Ratio at 100 μM/%
Method: AlphaLISA assays were applied to determine the inhibitory activity targeting SET7. The purified SET7 protein was incubated in modified Tris buffer in 384-well plates (Perkin Elmer, Cat. No. 6007299, Waltham, MA, USA) at room temperature for 15 min. The compounds were transferred to the assay plate using Echo in 100% DMSO, and substrate solution was added to each well to start the reaction. Acceptor and donor beads were added and incubated for 60 min at room temperature, shielded from light. The endpoint was evaluated with EndSpire in Alpha mode. The experimental data was fitted in GraphPad Prism 5 to obtain inhibition values using the equation as follows:(1) Inhibition %= Max−Siginal/Max−Min×100%

[4] = test system: THP1 leukemia cell line; assay: Cell viability assay (alamarBlue / MTT), THP1; type: cell-based; conditions: Homo sapiens, THP-1, 72 h, THP1, approximately 72 h
Method: as §1

[5] = test system: MCF7 (breast cancer) cells; assay: Cell viability assay (alamarBlue / MTT), MCF7; type: cell-based; conditions: Homo sapiens, MCF7, 72 h, MCF7, approximately 72 h
Method: as §1

[6] = molecular target: T2, SET7 (Homo sapiens, UniProt Q8WTS6); assay: Ligand observed T1rho (CPMG) NMR experiment; type: binding; conditions: 20 μM compound, 2.5 μM SET7
T2 sequence (Q8WTS6 117-366 limits assumed): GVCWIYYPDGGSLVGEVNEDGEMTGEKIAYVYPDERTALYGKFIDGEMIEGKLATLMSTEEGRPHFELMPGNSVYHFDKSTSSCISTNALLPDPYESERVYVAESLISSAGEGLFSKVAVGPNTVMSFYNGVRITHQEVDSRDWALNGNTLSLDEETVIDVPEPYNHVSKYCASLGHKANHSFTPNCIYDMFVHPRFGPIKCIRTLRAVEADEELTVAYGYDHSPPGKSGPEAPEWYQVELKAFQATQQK
Method: Ligand observed T1ρ NMR experiment were applied to investigate ligand-protein interactions. All NMR spectra were acquired at 25 °C on a 600 MHz Bruker Avance III spectrometer equipped with a cryogenically cooled probe (Bruker Biospin, Ettlingen, Germany). Samples containing 20 μM DC-S285, and 20 μM DC-S285 in the presence of 2.5 μM SET7 were dissolved in Tris-HCl buffer (50 mM Tris-HCl, 100 mM NaCl, pH 7.4, 5% DMSO, 95% D2O) and then used in NMR data acquisition. T1ρ spectra were recorded by using the pulse sequence of solvent-suppressed ^1D ^1H CPMG (cpmgPr1d). The 90° pulse length was adjusted to about 11.80 μs. A total of four dummy scans and 64 free induction decays (FIDs) were collected into 64 K acquisition points, covering a spectral width of 12 kHz (20 ppm) and giving an acquisition time (ACQ) of 2.73 s. STD data was acquired using 4 dummy scans and a relaxation delay of 3 s, followed by a 40 dB pulsed irradiation at frequency of −1.0 ppm or 33 ppm alternatively. The total acquisition time for STD spectrum was 23 min with 128 FIDs.

[7] = test system: Jurkat leukemia cell line; assay: Cell viability assay (alamarBlue / MTT), Jurkat; type: cell-based; conditions: Homo sapiens, 72 h, approximately 72 h
Method: as §1

[8] = molecular target: T3, SMYD2 (Homo sapiens, UniProt Q9NRG4); assay: Enzymatic selectivity assay SMYD2 (Alpha mode); type: biochemical; conditions: SMYD2, 100 μM; read-out: Inhibition Ratio at 100 μM/%
T3 construct: purchased Active Motif 31323
Method: (§2) For SETD1B, G9a and SMYD2, the activities against those targets were tested in modified Tris buffer (1× assay buffer). All the solid compounds were dissolved to 20 mM in 100% DMSO. The materials used were SETD1B (Active Motif, Cat. No. M1083, Carlsbad, CA, USA), G9a (BPS, Cat. No. 51001, San Diego, CA, USA), […] and 384-well plate (Perkin Elmer, Cat. No. 6007299). Both the enzyme solution and the substrate solution were prepared in 1× assay buffer enzyme solution or 1× assay buffer for low control was transferred to the assay plate. Then substrate mix solution was added to each well to start the solution for 15 min incubation at room temperature. For SETD1B, G9a, the incubation time was adjusted to 60 min and for SMYD2, the incubation time was set to 240 min. For detection, acceptor and donor beads were added and incubated for 60 min at room temperature, shielded from light. The endpoint was evaluated with EnSpire in Alpha mode.

[9] = molecular target: T4, SETD1B (Homo sapiens, UniProt Q9UPS6); assay: Enzymatic selectivity assay SETD1B (Alpha mode); type: biochemical; conditions: read-out: Inhibition Ratio at 100 μM/%
T4 construct: purchased Active Motif M1083
Method: as §2

[10] = molecular target: T5, G9a (Homo sapiens, UniProt Q96KQ7); assay: Enzymatic selectivity assay G9a (Alpha mode); type: biochemical; conditions: read-out: Inhibition Ratio at 100 μM/%
T5 construct: purchased BPS 51001
T5 sequence (Q96KQ7 785-1210 limits assumed): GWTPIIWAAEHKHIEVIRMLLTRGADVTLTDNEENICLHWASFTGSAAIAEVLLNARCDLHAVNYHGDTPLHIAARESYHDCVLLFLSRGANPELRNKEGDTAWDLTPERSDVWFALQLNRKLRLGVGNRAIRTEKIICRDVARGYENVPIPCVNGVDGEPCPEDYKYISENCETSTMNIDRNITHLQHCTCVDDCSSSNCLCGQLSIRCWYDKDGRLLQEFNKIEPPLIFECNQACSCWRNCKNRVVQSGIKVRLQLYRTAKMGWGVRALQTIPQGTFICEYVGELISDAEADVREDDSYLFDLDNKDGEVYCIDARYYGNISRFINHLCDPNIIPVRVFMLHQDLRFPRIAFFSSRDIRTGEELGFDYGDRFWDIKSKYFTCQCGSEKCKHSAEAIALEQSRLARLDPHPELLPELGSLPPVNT
Method: as §2

[11] = molecular target: T6, SETD8 (Homo sapiens, UniProt Q9NQR1); assay: Radioactive methylation inhibition assay of SETD8; type: biochemical; conditions: SETD8, 100 μM; read-out: Inhibition Ratio at 100 μM/%
T6 sequence (Q9NQR1 1-393): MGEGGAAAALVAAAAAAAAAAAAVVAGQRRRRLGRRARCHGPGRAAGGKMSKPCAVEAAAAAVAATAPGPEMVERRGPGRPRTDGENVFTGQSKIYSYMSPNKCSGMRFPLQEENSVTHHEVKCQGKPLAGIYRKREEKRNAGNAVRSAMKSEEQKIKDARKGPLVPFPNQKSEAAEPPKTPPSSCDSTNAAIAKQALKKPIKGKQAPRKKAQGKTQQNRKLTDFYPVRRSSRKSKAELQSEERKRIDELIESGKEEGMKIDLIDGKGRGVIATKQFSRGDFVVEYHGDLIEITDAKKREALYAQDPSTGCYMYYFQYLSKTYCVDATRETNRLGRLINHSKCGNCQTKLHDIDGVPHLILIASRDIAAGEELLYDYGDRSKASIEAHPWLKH
Method: The radioactive methylation inhibition assay of SETD8 was performed in modified Tris buffer. […] and [^3H]-SAM (PerkinElmer, Cat No. NET1551MC) were added in 1x buffer as the substrate solution. The enzyme solution was incubated at room temperature for 15 min before substrate solution was added to each well to start the reaction. Cold SAM (Sigma, Cat. No. 7007-100MG) was added in 1x buffer to prepare the stop mix, and was added to stop the reaction; finally 10 μL of the reaction system was transferred to flashplate (PerkinElmer Inc., Cat. No. SMP410A001PK) and incubated at room temperature for a minimum of 2 h. The plate was washed three times with dH2O and 0.1% Tween-20, and the radioactivity signal was detected by liquid scintillation counting (MicroBeta, PerkinElmer). SAH was used as the reference compound.

[12] = molecular target: EZH2 (Homo sapiens, UniProt Q15910); assay: Radioactive methylation inhibition assay of EZH2; type: biochemical; conditions: EZH2, 100 μM
Method: The radioactive methylation inhibition assay of EZH2 was performed in modified Tris buffer. H3K27me peptide and [^3H]-SAM (Perkin Elmer Inc. Waltham, MA, USA, Lot. No. 1731619) were added in 1x buffer as the substrate solution. The […] solution was incubated at room temperature for 15 min before substrate solution was added to each well to start the reaction. Cold SAM (Sigma, Cat. NO. 7007) was added in 1× buffer to prepare stop mix (final concentration 0.5 mM), and was added to stop the reaction; finally 25 μL of the reaction system was transferred to a FlashPlate (Perkin Elmer, Cat. No. SMP410A001PK) and incubated at room temperature for a minimum of 1 h. The plate was washed three times with dH2O and 0.1% Tween-20, and the radioactivity was determined by liquid scintillation counting (MicroBeta). GSK-126 was used as the reference compound.

T3 sequence (Q9NRG4 whole entry): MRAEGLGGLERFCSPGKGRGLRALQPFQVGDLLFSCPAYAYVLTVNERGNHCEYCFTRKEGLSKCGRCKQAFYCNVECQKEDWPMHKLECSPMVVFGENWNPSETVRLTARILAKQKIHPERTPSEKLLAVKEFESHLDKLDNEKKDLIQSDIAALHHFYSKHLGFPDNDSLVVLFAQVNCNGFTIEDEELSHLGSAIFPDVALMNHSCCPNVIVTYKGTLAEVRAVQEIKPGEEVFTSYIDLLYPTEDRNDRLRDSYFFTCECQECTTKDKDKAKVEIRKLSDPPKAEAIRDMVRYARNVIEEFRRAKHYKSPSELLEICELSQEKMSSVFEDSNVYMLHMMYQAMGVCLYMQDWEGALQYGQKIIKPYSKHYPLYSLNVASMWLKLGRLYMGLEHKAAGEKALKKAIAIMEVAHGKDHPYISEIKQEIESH
Sequence of EZH2 (Q15910 whole entry, species assumed): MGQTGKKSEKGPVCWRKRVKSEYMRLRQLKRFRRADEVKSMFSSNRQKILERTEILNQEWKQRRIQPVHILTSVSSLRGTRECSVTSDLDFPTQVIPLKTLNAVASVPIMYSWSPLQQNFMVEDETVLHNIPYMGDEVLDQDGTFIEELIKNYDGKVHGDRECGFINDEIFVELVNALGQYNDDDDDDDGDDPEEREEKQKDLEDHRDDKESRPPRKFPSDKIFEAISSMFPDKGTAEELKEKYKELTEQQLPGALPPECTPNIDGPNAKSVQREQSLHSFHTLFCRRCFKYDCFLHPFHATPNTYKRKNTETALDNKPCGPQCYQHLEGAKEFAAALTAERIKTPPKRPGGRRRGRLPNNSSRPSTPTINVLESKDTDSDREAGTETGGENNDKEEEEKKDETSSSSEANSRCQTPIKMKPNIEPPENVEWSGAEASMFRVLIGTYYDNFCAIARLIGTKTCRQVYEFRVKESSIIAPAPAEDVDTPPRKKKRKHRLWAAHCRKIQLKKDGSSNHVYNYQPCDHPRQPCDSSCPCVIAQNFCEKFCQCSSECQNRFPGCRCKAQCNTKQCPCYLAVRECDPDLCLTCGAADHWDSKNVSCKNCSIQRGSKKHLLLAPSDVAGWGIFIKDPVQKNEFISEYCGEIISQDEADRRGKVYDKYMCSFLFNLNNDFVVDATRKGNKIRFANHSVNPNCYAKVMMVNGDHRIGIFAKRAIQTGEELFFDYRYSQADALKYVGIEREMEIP
Sequence of EZH2 (O75530 whole entry partner, species assumed): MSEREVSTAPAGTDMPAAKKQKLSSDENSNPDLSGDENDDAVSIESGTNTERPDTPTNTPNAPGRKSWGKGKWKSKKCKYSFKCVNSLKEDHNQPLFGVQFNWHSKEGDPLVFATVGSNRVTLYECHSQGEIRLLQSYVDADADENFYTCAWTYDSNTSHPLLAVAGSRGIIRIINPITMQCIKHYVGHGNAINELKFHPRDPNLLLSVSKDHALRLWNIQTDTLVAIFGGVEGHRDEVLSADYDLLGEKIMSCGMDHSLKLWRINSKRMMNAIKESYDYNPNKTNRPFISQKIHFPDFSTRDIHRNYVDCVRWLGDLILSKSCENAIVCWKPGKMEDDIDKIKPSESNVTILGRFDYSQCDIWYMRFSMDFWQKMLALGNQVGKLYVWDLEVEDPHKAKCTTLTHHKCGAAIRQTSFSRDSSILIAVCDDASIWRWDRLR
Sequence of EZH2 (Q15022 whole entry partner, species assumed): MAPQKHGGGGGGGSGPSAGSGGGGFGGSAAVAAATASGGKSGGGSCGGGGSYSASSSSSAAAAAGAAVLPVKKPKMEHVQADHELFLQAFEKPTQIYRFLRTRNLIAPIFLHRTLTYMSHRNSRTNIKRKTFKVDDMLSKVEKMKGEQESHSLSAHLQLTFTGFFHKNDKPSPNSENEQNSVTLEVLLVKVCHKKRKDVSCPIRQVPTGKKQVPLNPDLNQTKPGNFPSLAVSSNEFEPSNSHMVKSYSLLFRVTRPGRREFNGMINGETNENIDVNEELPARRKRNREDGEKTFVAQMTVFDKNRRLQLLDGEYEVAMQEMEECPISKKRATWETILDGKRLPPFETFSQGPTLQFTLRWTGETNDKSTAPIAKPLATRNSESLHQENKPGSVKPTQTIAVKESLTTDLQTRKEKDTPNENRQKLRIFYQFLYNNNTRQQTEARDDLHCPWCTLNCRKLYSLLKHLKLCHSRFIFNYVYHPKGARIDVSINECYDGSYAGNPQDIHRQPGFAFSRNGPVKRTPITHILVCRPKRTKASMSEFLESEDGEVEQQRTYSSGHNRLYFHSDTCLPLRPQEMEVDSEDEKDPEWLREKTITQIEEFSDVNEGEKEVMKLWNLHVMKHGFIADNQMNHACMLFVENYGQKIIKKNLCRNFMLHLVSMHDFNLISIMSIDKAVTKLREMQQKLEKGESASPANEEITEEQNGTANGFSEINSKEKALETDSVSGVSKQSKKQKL

IC50 [1] | IC50 [2] | IC50 ([3]; AlphaLISA assay) | IC50 [4] | IC50 [5] | binding to SET7 in T1ρ (CPMG) NMR [6] | IC50 [7] | inhibition at 100 µM ([3]; AlphaLISA assay, SET7, 100 μM) | inhibition at 100 µM ([3]; SETD7, 100 μM, selectivity panel (Table 3)) | inhibition at 100 µM [8] | inhibition at 100 µM [9] | inhibition at 100 µM [10] | inhibition at 100 µM [11] | Inhibition Ratio at 100 μM/% [12] | SMILES
3.9 µM | 19.5 µM | 9.3 µM | 3.5 µM | 21.4 µM | Strong binding signals | 2200 nM | – | – | – | – | – | – | – | COc1ccc(C(=O)N/N=C/c2ccc([N+](=O)[O-])cc2)cc1Br [DC-S285]
– | 2.9 µM | 1.1 µM | – | – | – | – | 99% | 90.5% | 24.6% | 27.1% | 52.6% | 55.2% | 47.88% | O=C(N/N=C/c1cc([N+](=O)[O-])ccc1Cl)c1ccc(-c2ccccc2)cc1 [DC-S303]

— publication PMC6017732, “Identification and Characterizations of Novel, Selective Histone Methyltransferase SET7 Inhibitors by Scaffold Hopping- and 2D-Molecular Fingerprint-Based Similarity Search” (Molecules : A Journal of Synthetic Chemistry and Natural …, 2018)
